Measurements reported in PMC6125190 (Cell metabolism, 2018).

Molecular target: T1, CPT-1a (carnitine palmitoyltransferase-1) (Mus musculus, UniProt P97742)
T1 sequence (P97742 2-773): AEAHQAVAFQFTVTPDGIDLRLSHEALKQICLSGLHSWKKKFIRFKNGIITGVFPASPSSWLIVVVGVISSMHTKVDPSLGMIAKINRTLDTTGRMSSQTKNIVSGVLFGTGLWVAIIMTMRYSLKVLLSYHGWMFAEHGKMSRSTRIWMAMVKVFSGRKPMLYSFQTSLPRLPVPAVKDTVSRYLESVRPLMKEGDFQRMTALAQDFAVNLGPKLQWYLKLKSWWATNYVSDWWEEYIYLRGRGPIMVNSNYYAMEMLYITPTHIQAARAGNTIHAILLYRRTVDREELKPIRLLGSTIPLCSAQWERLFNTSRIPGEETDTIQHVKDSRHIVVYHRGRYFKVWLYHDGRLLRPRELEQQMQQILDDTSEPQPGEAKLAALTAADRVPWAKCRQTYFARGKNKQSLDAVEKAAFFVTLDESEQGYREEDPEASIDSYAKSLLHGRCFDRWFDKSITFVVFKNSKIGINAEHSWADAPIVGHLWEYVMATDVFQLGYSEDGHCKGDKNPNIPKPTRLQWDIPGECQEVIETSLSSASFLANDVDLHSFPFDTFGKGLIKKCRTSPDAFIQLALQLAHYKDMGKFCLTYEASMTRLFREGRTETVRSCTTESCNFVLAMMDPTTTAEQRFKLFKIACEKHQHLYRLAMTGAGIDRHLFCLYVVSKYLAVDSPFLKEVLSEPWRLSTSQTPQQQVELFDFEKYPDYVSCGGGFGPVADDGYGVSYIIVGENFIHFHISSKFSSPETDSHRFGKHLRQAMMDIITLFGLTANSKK
Format: biochemical

`CCOC(=O)[C@@]1(CCCCCCOc2ccc(Cl)cc2)CO1` [Eto, etomoxir] was tested. Which “palmitoyl-CoA-driven respiration in permeabilized mouse BMDMs pretreated with et” value did it give?
The value was less than 3 µM.
